Laboratory results from patent US20230203043A1, “NOVEL IMIDAZOPYRAZINE DERIVATIVES” (Hoffmann-La Roche Inc., priority 2020, published 2023).
Structures can show the parent of a compound that is named as a salt.

test system: Acinetobacter baumannii ATCC17961; test: Antimicrobial susceptibility testing: 90% growth inhibitory concentration (IC90) determination in Iso-Sensitest broth, OD600 growth; assay type: cell-based; conditions: Acinetobacter baumannii, ATCC17961, 16 h, read-out: A. baumannii ATCC 17961 IC90 (uM), strain ATCC 17961, OD600 growth over 16 h
Outline: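 Each strain, at about 5×10^(5) CFU/ml, was incubated with twofold dilutions of compound at 35±2° C for 16 h, and IC90 was calculated from kinetic optical density measured at 600 nm during logarithmic growth.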

Structure (SMILES)	IC90
C[C@H](NC(=O)c1ccc(Nc2nccn3c(-c4c[nH]nc4C(F)(F)F)cnc23)cc1Cl)C(=O)N1CCC(N)CC1 [Example 126, N-[(2S)-1-(4-aminopiperidin-1-yl)-1-oxopropan-2-yl]-2-chloro-4-[[3-[3-(trifluoromethyl)-1H-pyrazol-4-yl]imidazo[1,2-a]pyrazin-8-yl]amino]benzamide formate]	4.15 µM
C[C@H](NC(=O)c1ccc(Nc2nccn3c(-c4c[nH]nc4C(F)(F)F)cnc23)cc1Cl)C(=O)N[C@H]1CCNC1 [Example 127, 2-chloro-N-[(2S)-1-oxo-1-[[(3S)-pyrrolidin-3-yl]amino]propan-2-yl]-4-[[3-[3-(trifluoromethyl)-1H-pyrazol-4-yl]imidazo[1,2-a]pyrazin-8-yl]amino]benzamide formate]	> 5 µM
Cn1cc(Cn2cc(-c3cnc4c(Nc5ccc(C(=O)N6CCNCC6)c(Cl)c5)nccn34)c(C(F)(F)F)n2)cn1 [Example 134, [2-chloro-4-[[3-[1-[(1-methylpyrazol-4-yl)methyl]-3-(trifluoromethyl)pyrazol-4-yl]imidazo[1,2-a]pyrazin-8-yl]amino]phenyl]-piperazin-1-ylmethanone formate]	0.768 µM
O=C(c1ccc(Nc2nccn3c(-c4cn(Cc5cccnn5)nc4C(F)(F)F)cnc23)cc1Cl)N1CCNCC1 [Example 135, [2-chloro-4-[[3-[1-(pyridazin-3-ylmethyl)-3-(trifluoromethyl)pyrazol-4-yl]imidazo[1,2-a]pyrazin-8-yl]amino]phenyl]-piperazin-1-ylmethanone formate]	0.933 µM

same assay, conditions: Acinetobacter baumannii, ATCC17961, 16 h, strain ATCC 17961, OD600 growth over 16 h, read-out: A. baumannii ATCC 17961 IC90

IC90	Structure (SMILES)
0.209 µM	C#CCn1cc(-c2cnc3c(Nc4ccc(C(=O)NCCOCCN)c(CC)c4)nccn23)c(C(F)F)n1 [Example 123, N-[2-(2-aminoethoxy)ethyl]-4-[[3-[3-(difluoromethyl)-1-prop-2-ynylpyrazol-4-yl]imidazo[1,2-a]pyrazin-8-yl]amino]-2-ethylbenzamide]
0.121 µM	CNC(=O)c1ccc(Nc2nccn3c(-c4cn(CC(F)F)nc4C(F)(F)F)cnc23)cc1Cl [Example 124, 2-chloro-4-[[3-[1-(2,2-difluoroethyl)-3-(trifluoromethyl)pyrazol-4-yl]imidazo[1,2-a]pyrazin-8-yl]amino]-N-methylbenzamide]
2.23 µM	O=C(CNC(=O)c1ccc(Nc2nccn3c(-c4c[nH]nc4C(F)(F)F)cnc23)cc1Cl)N[C@H]1CCNC1 [Example 125, 2-chloro-N-[2-oxo-2-[[(3S)-pyrrolidin-3-yl]amino]ethyl]-4-[[3-[3-(trifluoromethyl)-1H-pyrazol-4-yl]imidazo[1,2-a]pyrazin-8-yl]amino]benzamide]
0.117 µM	NCC(=O)N1CCN(C(=O)c2ccc(Nc3nccn4c(-c5c[nH]nc5C(F)(F)F)cnc34)cc2Cl)CC1 [Example 131, 2-amino-1-[4-[2-chloro-4-[[3-[3-(trifluoromethyl)-1H-pyrazol-4-yl]imidazo[1,2-a]pyrazin-8-yl]amino]benzoyl]piperazin-1-yl]ethanone]
0.136 µM	N#CCn1cc(-c2cnc3c(Nc4ccc(C(=O)N5CCN(C(=O)CN)CC5)c(Cl)c4)nccn23)c(C(F)(F)F)n1 [Example 132, 2-[4-[8-[4-[4-(2-aminoacetyl)piperazine-1-carbonyl]-3-chloroanilino]imidazo[1,2-a]pyrazin-3-yl]-3-(trifluoromethyl)pyrazol-1-yl]acetonitrile]
0.322 µM	O=C(CC1CNC1)N1CCN(C(=O)c2ccc(Nc3nccn4c(-c5c[nH]nc5C(F)(F)F)cnc34)cc2Cl)CC1 [Example 133, 2-(azetidin-3-yl)-1-[4-[2-chloro-4-[[3-[3-(trifluoromethyl)-1H-pyrazol-4-yl]imidazo[1,2-a]pyrazin-8-yl]amino]benzoyl]piperazin-1-yl]ethanone]
1.33 µM	NC1CCN(C(=O)CNC(=O)c2ccc(Nc3nccn4c(-c5c[nH]nc5C(F)(F)F)cnc34)cc2Cl)CC1 [Example 136, N-[2-(4-aminopiperidin-1-yl)-2-oxoethyl]-2-chloro-4-[[3-[3-(trifluoromethyl)-1H-pyrazol-4-yl]imidazo[1,2-a]pyrazin-8-yl]amino]benzamide]
1.86 µM	N[C@@H]1CCN(C(=O)CNC(=O)c2ccc(Nc3nccn4c(-c5c[nH]nc5C(F)(F)F)cnc34)cc2Cl)C1 [Example 137, N-[2-[(3R)-3-aminopyrrolidin-1-yl]-2-oxoethyl]-2-chloro-4-[[3-[3-(trifluoromethyl)-1H-pyrazol-4-yl]imidazo[1,2-a]pyrazin-8-yl]amino]benzamide]
2.01 µM	NC1CC(NC(=O)CNC(=O)c2ccc(Nc3nccn4c(-c5c[nH]nc5C(F)(F)F)cnc34)cc2Cl)C1 (centres unmarked) [Example 138, N-[2-[(3-aminocyclobutyl)amino]-2-oxoethyl]-2-chloro-4-[[3-[3-(trifluoromethyl)-1H-pyrazol-4-yl]imidazo[1,2-a]pyrazin-8-yl]amino]benzamide]
2.8 µM	O=C(CNC(=O)c1ccc(Nc2nccn3c(-c4c[nH]nc4C(F)(F)F)cnc23)cc1Cl)N[C@@H]1CCNC1 [Example 139, 2-chloro-N-[2-oxo-2-[[(3R)-pyrrolidin-3-yl]amino]ethyl]-4-[[3-[3-(trifluoromethyl)-1H-pyrazol-4-yl]imidazo[1,2-a]pyrazin-8-yl]amino]benzamide]
4.05 µM	NC1CN(C(=O)CNC(=O)c2ccc(Nc3nccn4c(-c5c[nH]nc5C(F)(F)F)cnc34)cc2Cl)C1 [Example 141, N-[2-(3-aminoazetidin-1-yl)-2-oxoethyl]-2-chloro-4-[[3-[3-(trifluoromethyl)-1H-pyrazol-4-yl]imidazo[1,2-a]pyrazin-8-yl]amino]benzamide]
0.554 µM	N#CCn1cc(-c2cnc3c(Nc4ccc(C(=O)N5CCC(NC(=O)C6CCNCC6)CC5)c(Cl)c4)nccn23)c(C(F)(F)F)n1 [Example 142, N-[1-[2-chloro-4-[[3-[1-(cyanomethyl)-3-(trifluoromethyl)pyrazol-4-yl]imidazo[1,2-a]pyrazin-8-yl]amino]benzoyl]piperidin-4-yl]piperidine-4-carboxamide]
0.555 µM	N#CCn1cc(-c2cnc3c(Nc4ccc(C(=O)N5CCC(NC(=O)[C@@H]6C[C@@H](O)CN6)CC5)c(Cl)c4)nccn23)c(C(F)(F)F)n1 [Example 143, (2S,4R)-N-[1-[2-chloro-4-[[3-[1-(cyanomethyl)-3-(trifluoromethyl)pyrazol-4-yl]imidazo[1,2-a]pyrazin-8-yl]amino]benzoyl]piperidin-4-yl]-4-hydroxypyrrolidine-2-carboxamide]
1.9 µM	CCc1cc(Nc2nccn3c(-c4c[nH]nc4C(F)(F)F)cnc23)ccc1C(=O)N[C@H](C)CN [Example 145, N-[(2R)-1-aminopropan-2-yl]-2-ethyl-4-[[3-[3-(trifluoromethyl)-1H-pyrazol-4-yl]imidazo[1,2-a]pyrazin-8-yl]amino]benzamide trifluoroacetate]
0.049 µM	C#CCn1cc(-c2cnc3c(Nc4ccc(C(=O)NCCOC[C@H](C)N)c(CC)c4)nccn23)c(C(F)(F)F)n1 [Example 147, N-[2-[(2S)-2-aminopropoxy]ethyl]-2-ethyl-4-[[3-[1-prop-2-ynyl-3-(trifluoromethyl)pyrazol-4-yl]imidazo[1,2-a]pyrazin-8-yl]amino]benzamide]
0.102 µM	C#CCn1cc(-c2cnc3c(Nc4ccc(C(=O)NCCOC[C@@H](C)N)c(CC)c4)nccn23)c(C(F)(F)F)n1 [Example 149, N-[2-[(2R)-2-aminopropoxy]ethyl]-2-ethyl-4-[[3-[1-prop-2-ynyl-3-(trifluoromethyl)pyrazol-4-yl]imidazo[1,2-a]pyrazin-8-yl]amino]benzamide]

same assay, conditions: strain ATCC 17961, OD600 growth over 16 h, read-out: A. baumannii ATCC 17961 IC90

IC90	Structure (SMILES)
0.659 µM	C#CCn1cc(-c2cnc3c(Nc4ccc(C(=O)N[C@H](C)CNC(=O)OC(C)(C)C)c(CC)c4)nccn23)c(C(F)(F)F)n1 [Example 128, tert-butyl N-[(2R)-2-[[2-ethyl-4-[[3-[1-prop-2-ynyl-3-(trifluoromethyl)pyrazol-4-yl]imidazo[1,2-a]pyrazin-8-yl]amino]benzoyl]amino]propyl] carbamate]
1.06 µM	C=CCn1cc(-c2cnc3c(Nc4ccc(C(=O)N[C@H](C)CNC(=O)OC(C)(C)C)c(CC)c4)nccn23)c(C(F)(F)F)n1 [Example 129, tert-butyl N-[(2R)-2-[[2-ethyl-4-[[3-[1-prop-2-enyl-3-(trifluoromethyl)pyrazol-4-yl]imidazo[1,2-a]pyrazin-8-yl]amino]benzoyl]amino]propyl] carbamate]
1.33 µM	CCc1cc(Nc2nccn3c(-c4cn(CC(F)F)nc4C(F)(F)F)cnc23)ccc1C(=O)N[C@H](C)CNC(=O)OC(C)(C)C [Example 130, tert-butyl N-[(2R)-2-[[4-[[3-[1-(2,2-difluoroethyl)-3-(trifluoromethyl)pyrazol-4-yl]imidazo[1,2-a]pyrazin-8-yl]amino]-2-ethylbenzoyl]amino]propyl] carbamate]
0.335 µM	O=C(NC1CCN(C(=O)c2ccc(Nc3nccn4c(-c5c[nH]nc5C(F)(F)F)cnc34)cc2Cl)CC1)N[C@H]1CCNC1 [Example 144, 1-[1-[2-choro-4-[[3-[3-(trifluoromethyl)-1H-pyrazol-4-yl]imidazo[1,2-a]pyrazin-8-yl]amino]benzoyl]piperidin-4-yl]-3-[(3S)-pyrrolidin-3-yl]urea]
0.084 µM	C=CCn1cc(-c2cnc3c(Nc4ccc(C(=O)NCCOC[C@@H](C)N)c(CC)c4)nccn23)c(C(F)(F)F)n1 [Example 148, N-[2-[(2R)-2-aminopropoxy]ethyl]-2-ethyl-4-[[3-[1-prop-2-enyl-3-(trifluoromethyl)pyrazol-4-yl]imidazo[1,2-a]pyrazin-8-yl]amino]benzamide]

Structure (SMILES)	IC90
C[C@H](NC(=O)c1ccc(Nc2nccn3c(-c4c[nH]nc4C(F)(F)F)cnc23)cc1Cl)C(=O)N1CCNCC1 [Example 140, 2-chloro-N-[(2S)-1-oxo-1-piperazin-1-ylpropan-2-yl]-4-[[3-[3-(trifluoromethyl)-1H-pyrazol-4-yl]imidazo[1,2-a]pyrazin-8-ylamino]benzamide formate]	3.31 µM
